According to PubChem BioAssay AID228 (DTP/NCI, 2004):
Values joined by “and” are separate entries in the source; they are usually repeats but may differ in a detail not shown here. Identical values can stand only once. Inconclusive results are not listed.

System: BDF1 mice, Friend leukemia sc, tumor weight T/C
Experiment: NCI In Vivo Anticancer Drug Screen. Data for tumor model Friend Virus Leukemia (Solid) (subcutaneous) in B6D2F1 (BDF1) mice
Settings: endpoint: mean tumor weight, higher = larger tumour
Procedure: The antitumor activity of compounds was measured in mice bearing transplantable tumors. Survival or tumor size were measured and the results are expressed as the measurement made in the treated group (T) divided by the measurement made in the vehicle treated control group (C). The tumor model used in this assay is Friend Virus Leukemia (Solid) (subcutaneous) in B6D2F1 (BDF1) mice

[1] = dose: 15.0 mg/kg/injection, schedule: Q01DX011 (ip), vehicle: carboxymethylcellulose (CMC)
[2] = dose: 31.0 mg/kg/injection, schedule: Q01DX011 (ip), vehicle: carboxymethylcellulose (CMC)
[3] = dose: 125.0 mg/kg/injection, schedule: Q01DX011 (ip), vehicle: carboxymethylcellulose (CMC)
[4] = dose: 250.0 mg/kg/injection, schedule: Q01DX011 (ip), vehicle: carboxymethylcellulose (CMC)
[5] = dose: 500.0 mg/kg/injection, schedule: Q01DX011 (ip), vehicle: carboxymethylcellulose (CMC)
[6] = dose: 75.0 mg/kg/injection, schedule: Q01DX011 (ip), vehicle: carboxymethylcellulose (CMC)
[7] = dose: 30.0 mg/kg/injection, schedule: Q01DX011 (ip), vehicle: carboxymethylcellulose (CMC)
[8] = dose: 62.5 mg/kg/injection, schedule: Q01DX011 (ip), vehicle: carboxymethylcellulose (CMC)
[9] = dose: 60.0 mg/kg/injection, schedule: Q01DX011 (ip), vehicle: carboxymethylcellulose (CMC)
[10] = dose: 120.0 mg/kg/injection, schedule: Q01DX011 (ip), vehicle: carboxymethylcellulose (CMC)
[11] = dose: 100.0 mg/kg/injection, schedule: Q01DX011 (ip), vehicle: carboxymethylcellulose (CMC)
[12] = dose: 4.0 mg/kg/injection, schedule: Q01DX011 (ip), vehicle: carboxymethylcellulose (CMC)

For `O=[N+]([O-])c1ccccc1CSc1ncnc2nc[nH]c12`, the T/C [1] was 112 % of control, the T/C [2] was 111 % of control and the T/C (dose: 62.0 mg/kg/injection, schedule: Q01DX011 (ip), vehicle: carboxymethylcellulose (CMC)) was 55 % of control and 48 % of control. For the same compound, the T/C [3] was 26 % of control and 48 % of control, the T/C [4] was 7 % of control and the T/C [5] was 2 % of control.
`CO[C@H]1[C@@H](O)C[C@H]2[C@@H]3CC=C4C[C@@H](O)CC[C@]4(C)[C@H]3CC[C@@]21C` was tested, and the T/C (dose: 10.0 mg/kg/injection, schedule: Q01DX011 (sc), vehicle: steriod suspending solution) was 77 % of control, the T/C (dose: 20.0 mg/kg/injection, schedule: Q01DX011 (sc), vehicle: steriod suspending solution) was 116 % of control and the T/C (dose: 40.0 mg/kg/injection, schedule: Q01DX011 (sc), vehicle: steriod suspending solution) was 115 % of control.
With `[I][Hg][CH2]C1OCCOC1[CH2][Hg][I]` (centres undefined) the T/C (dose: 18.0 mg/kg/injection, schedule: Q01DX011 (ip), vehicle: carboxymethylcellulose (CMC)) was 66 % of control, the T/C (dose: 37.0 mg/kg/injection, schedule: Q01DX011 (ip), vehicle: carboxymethylcellulose (CMC)) was 76 % of control and the T/C [6] was 46 % of control.
`Nc1nc(N)c(N=O)c(Nc2ccc(Cl)c(Cl)c2)n1` was tested, and the T/C (dose: 3.75 mg/kg/injection, schedule: Q01DX011 (ip), vehicle: carboxymethylcellulose (CMC)) was 153 % of control, the T/C (dose: 7.5 mg/kg/injection, schedule: Q01DX011 (ip), vehicle: carboxymethylcellulose (CMC)) was 69 % of control and the T/C [1] was 109 % of control. The T/C [7] was 91 % of control.
`N#CCSc1ncnc2nc[nH]c12` was tested, and the T/C (dose: 15.5 mg/kg/injection, schedule: Q01DX011 (ip), vehicle: carboxymethylcellulose (CMC)) was 91 % of control, the T/C [2] was 32 % of control and the T/C [8] was 18 % of control.
In the case of `CCC1=C(c2cc(Cl)c3ccccc3c2OCC(=O)O)OC(CC)(C(=O)c2cc(Cl)c3ccccc3c2OCC(=O)O)CC1` (centres undefined), the T/C [7] is reported as 52 % of control, the T/C [9] is reported as 55 % of control and the T/C [10] is reported as 63 % of control. The T/C (dose: 240.0 mg/kg/injection, schedule: Q01DX011 (ip), vehicle: carboxymethylcellulose (CMC)) was 66 % of control.
For `S=P(N1CC1)(N1CC1)N1CC1`, the T/C (dose: 0.3 mg/kg/injection, schedule: Q01DX011 (ip), vehicle: carboxymethylcellulose (CMC)) was 79 % of control, the T/C (dose: 0.6 mg/kg/injection, schedule: Q01DX011 (ip), vehicle: carboxymethylcellulose (CMC)) was 73 % of control and the T/C (dose: 0.96 mg/kg/injection, schedule: Q01DX011 (ip), vehicle: carboxymethylcellulose (CMC)) was 72 % of control. The T/C (dose: 1.6 mg/kg/injection, schedule: Q01DX011 (ip), vehicle: carboxymethylcellulose (CMC)) was 99 % of control and the T/C (dose: 2.4 mg/kg/injection, schedule: Q01DX011 (ip), vehicle: carboxymethylcellulose (CMC)) was 61 % of control and 73 % of control.
`CC(CCc1cccc2ccccc12)(C(=O)O)C(=O)O` was tested, and the T/C [11] was 92 % of control.
In the case of `CS(=O)(=O)OCCCOS(C)(=O)=O`, the T/C [1] is reported as 100 % of control, the T/C [7] is reported as 98 % of control and the T/C [9] is reported as 31 % of control and 46 % of control. For the same compound, the T/C [10] was 22 % of control.
With `O=C(Nc1ccc(C2=NCCCN2)cc1)c1ccc(NC(=O)c2ccc(C3=NCCCN3)cc2)cc1` the T/C [12] was 49 % of control, the T/C (dose: 6.0 mg/kg/injection, schedule: Q01DX011 (ip), vehicle: carboxymethylcellulose (CMC)) was 9 % of control and the T/C (dose: 8.0 mg/kg/injection, schedule: Q01DX011 (ip), vehicle: carboxymethylcellulose (CMC)) was 1 % of control.
In the case of `O=c1[nH]cc(N(CCCl)CCCl)c(=O)[nH]1`, the T/C (dose: 0.21 mg/kg/injection, schedule: Q01DX011 (ip), vehicle: carboxymethylcellulose (CMC)) is reported as 87 % of control, the T/C (dose: 0.42 mg/kg/injection, schedule: Q01DX011 (ip), vehicle: carboxymethylcellulose (CMC)) is reported as 99 % of control and the T/C (dose: 0.42 mg/kg/injection, schedule: Q01DX011 (ip), vehicle: saline) is reported as 53 % of control. For the same compound, the T/C (dose: 0.85 mg/kg/injection, schedule: Q01DX011 (ip), vehicle: carboxymethylcellulose (CMC)) was 36 % of control, the T/C (dose: 0.85 mg/kg/injection, schedule: Q01DX011 (ip), vehicle: saline) was 47 % of control and the T/C (dose: 1.3 mg/kg/injection, schedule: Q01DX011 (ip), vehicle: saline) was 20 % of control. The T/C (dose: 1.7 mg/kg/injection, schedule: Q01DX011 (ip), vehicle: saline) was 13 % of control.
For `C=CCn1c(=O)n(CC=C)c(=O)n(CC=C)c1=O`, the T/C (dose: 22.5 mg/kg/injection, schedule: Q01DX011 (ip), vehicle: saline) was 77 % of control, the T/C (dose: 45.0 mg/kg/injection, schedule: Q01DX011 (ip), vehicle: saline) was 103 % of control and the T/C (dose: 90.0 mg/kg/injection, schedule: Q01DX011 (ip), vehicle: saline) was 64 % of control. The T/C (dose: 180.0 mg/kg/injection, schedule: Q01DX011 (ip), vehicle: saline) was 82 % of control.
In the case of `CCC(=O)O[C@H]1CC[C@H]2[C@@H]3CC[C@H]4CC(=O)[C@H](C)C[C@]4(C)[C@H]3CC[C@]12C`, the T/C (dose: 42.0 mg/kg/injection, schedule: Q01DX011 (sc), vehicle: steriod suspending solution) is reported as 212 % of control, the T/C (dose: 44.1 mg/kg/injection, schedule: Q01DX011 (sc), vehicle: steriod suspending solution) is reported as 173 % of control and the T/C (dose: 83.0 mg/kg/injection, schedule: Q01DX011 (sc), vehicle: steriod suspending solution) is reported as 227 % of control. For the same compound, the T/C (dose: 88.2 mg/kg/injection, schedule: Q01DX011 (sc), vehicle: steriod suspending solution) was 184 % of control, the T/C (dose: 176.0 mg/kg/injection, schedule: Q01DX011 (sc), vehicle: steriod suspending solution) was 225 % of control and the T/C (dose: 353.0 mg/kg/injection, schedule: Q01DX011 (sc), vehicle: steriod suspending solution) was 168 % of control and 213 % of control.
With `Nc1ccc2ccccc2c1N=Nc1ccccc1` the T/C [8] was 66 % of control, the T/C [3] was 58 % of control and the T/C [5] was 25 % of control and 27 % of control.
For `COc1ccc(Nc2ccnc3cc(Cl)ccc23)cc1CN(CCCl)CCCl`, the T/C (dose: 1.0 mg/kg/injection, schedule: Q01DX011 (ip), vehicle: carboxymethylcellulose (CMC)) was 81 % of control, the T/C (dose: 2.0 mg/kg/injection, schedule: Q01DX011 (ip), vehicle: carboxymethylcellulose (CMC)) was 76 % of control and the T/C [12] was 42 % of control.
In the case of `C[C@H]1C(=O)O[C@@H]2CCN3CC=C(COC(=O)[C@](C)(O)[C@@]1(C)O)[C@H]23`, the T/C [2] is reported as 95 % of control, the T/C [8] is reported as 61 % of control and the T/C [3] is reported as 66 % of control. The T/C [4] was 38 % of control.
In the case of `CCOC(N)=O`, the T/C (dose: 37.5 mg/kg/injection, schedule: Q01DX011 (ip), vehicle: carboxymethylcellulose (CMC)) is reported as 68 % of control, the T/C (dose: 62.12 mg/kg/injection, schedule: Q01DX011 (ip), vehicle: carboxymethylcellulose (CMC)) is reported as 110 % of control and the T/C [8] is reported as 58 % of control. The T/C [6] was 50 % of control, the T/C [3] was 67 % of control and the T/C (dose: 125.25 mg/kg/injection, schedule: Q01DX011 (ip), vehicle: carboxymethylcellulose (CMC)) was 95 % of control. The T/C (dose: 150.0 mg/kg/injection, schedule: Q01DX011 (ip), vehicle: carboxymethylcellulose (CMC)) was 52 % of control and 36 % of control, the T/C [4] was 58 % of control and 66 % of control and 50 % of control and the T/C (dose: 250.5 mg/kg/injection, schedule: Q01DX011 (ip), vehicle: carboxymethylcellulose (CMC)) was 115 % of control. The T/C (dose: 300.0 mg/kg/injection, schedule: Q01DX011 (ip), vehicle: carboxymethylcellulose (CMC)) was 21 % of control, the T/C (dose: 334.0 mg/kg/injection, schedule: Q01DX011 (ip), vehicle: carboxymethylcellulose (CMC)) was 56 % of control and 37 % of control and the T/C (dose: 450.0 mg/kg/injection, schedule: Q01DX011 (ip), vehicle: carboxymethylcellulose (CMC)) was 20 % of control. The T/C (dose: 600.0 mg/kg/injection, schedule: Q01DX011 (ip), vehicle: carboxymethylcellulose (CMC)) was 26 % of control and the T/C (dose: 800.0 mg/kg/injection, schedule: Q01DX011 (ip), vehicle: carboxymethylcellulose (CMC)) was 36 % of control.
With `Nc1nc(N)c(N=Nc2ccccc2)c(=O)[nH]1` the T/C (dose: 50.0 mg/kg/injection, schedule: Q01DX011 (ip), vehicle: carboxymethylcellulose (CMC)) was 74 % of control, the T/C [11] was 70 % of control and the T/C (dose: 200.0 mg/kg/injection, schedule: Q01DX011 (ip), vehicle: carboxymethylcellulose (CMC)) was 60 % of control.
For `CCC(=O)NC1=C(N2CC2)C(=O)C(NC(=O)CC)=C(N2CC2)C1=O`, the T/C (dose: 0.39 mg/kg/injection, schedule: Q01DX011 (ip), vehicle: carboxymethylcellulose (CMC)) was 61 % of control, the T/C (dose: 0.78 mg/kg/injection, schedule: Q01DX011 (ip), vehicle: carboxymethylcellulose (CMC)) was 48 % of control and the T/C (dose: 1.56 mg/kg/injection, schedule: Q01DX011 (ip), vehicle: carboxymethylcellulose (CMC)) was 24 % of control. For the same compound, the T/C (dose: 3.12 mg/kg/injection, schedule: Q01DX011 (ip), vehicle: carboxymethylcellulose (CMC)) was 7 % of control.
